A value given as a limit tells only on which side of the number the result lay.

The target of one data set is Prothrombin (Homo sapiens, UniProt P00734). In words: Inhibitory activity against thrombin.
Data set [1] addresses T1, Coagulation factor X (Homo sapiens, UniProt P00742). Kind of data set: In vitro inhibitory activity against Coagulation factor X.
A further data set has as its target Serine protease 1 (Homo sapiens, UniProt P07477). In words: Inhibitory activity against trypsin.
Data set [2] addresses T1, Coagulation factor X. In words: In vitro inhibitory activity against coagulation factor X.
Data set [3] in a line: Oral bioavailability in rat (dose 6 mg/kg). In kind it is ADME, organism-based. The note with it: in vivo.
The next data set deals with Plasma kallikrein (Homo sapiens, UniProt P03952). Kind of data set: Inhibitory activity against kallikrein.
Chain of Plasma kallikrein (P03952 20-390 limits assumed): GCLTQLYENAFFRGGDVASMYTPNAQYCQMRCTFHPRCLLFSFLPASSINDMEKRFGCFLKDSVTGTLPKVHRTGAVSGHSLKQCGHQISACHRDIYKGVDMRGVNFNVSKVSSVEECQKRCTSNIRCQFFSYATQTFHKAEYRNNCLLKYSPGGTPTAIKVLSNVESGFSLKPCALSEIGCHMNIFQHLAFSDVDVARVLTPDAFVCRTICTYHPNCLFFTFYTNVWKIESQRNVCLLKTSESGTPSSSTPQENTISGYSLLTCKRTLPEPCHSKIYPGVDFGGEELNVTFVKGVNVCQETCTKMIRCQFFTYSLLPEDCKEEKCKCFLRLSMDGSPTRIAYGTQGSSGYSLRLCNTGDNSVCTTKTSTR
Chain of Plasma kallikrein (P03952 391-638 limits assumed): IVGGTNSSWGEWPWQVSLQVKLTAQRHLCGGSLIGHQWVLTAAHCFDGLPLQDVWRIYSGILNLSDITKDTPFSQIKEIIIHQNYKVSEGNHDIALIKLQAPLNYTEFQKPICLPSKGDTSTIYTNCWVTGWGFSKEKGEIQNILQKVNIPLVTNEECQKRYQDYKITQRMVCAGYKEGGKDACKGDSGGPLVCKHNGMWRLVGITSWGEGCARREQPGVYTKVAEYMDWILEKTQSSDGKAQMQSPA
In data set [4] the target is Tissue-type plasminogen activator (Homo sapiens, UniProt P00750). Kind of data set: Inhibitory activity against tissue type plasminogen activator.
Chain of Tissue-type plasminogen activator (P00750 whole entry): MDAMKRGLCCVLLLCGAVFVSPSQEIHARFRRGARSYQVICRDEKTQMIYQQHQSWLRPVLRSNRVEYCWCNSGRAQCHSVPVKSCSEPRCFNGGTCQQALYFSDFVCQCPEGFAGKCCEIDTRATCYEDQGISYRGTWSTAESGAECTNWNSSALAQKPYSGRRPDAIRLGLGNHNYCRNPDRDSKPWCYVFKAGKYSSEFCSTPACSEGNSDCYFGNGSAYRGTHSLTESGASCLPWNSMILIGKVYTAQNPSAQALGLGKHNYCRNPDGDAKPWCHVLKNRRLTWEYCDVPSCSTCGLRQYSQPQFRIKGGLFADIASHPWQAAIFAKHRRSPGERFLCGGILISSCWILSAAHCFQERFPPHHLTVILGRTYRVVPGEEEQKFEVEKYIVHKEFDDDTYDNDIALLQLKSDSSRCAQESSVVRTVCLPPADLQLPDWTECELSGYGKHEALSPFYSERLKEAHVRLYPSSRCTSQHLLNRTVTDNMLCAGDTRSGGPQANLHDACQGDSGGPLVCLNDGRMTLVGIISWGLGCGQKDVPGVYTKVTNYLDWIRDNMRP
Data set [5] addresses Vitamin K-dependent protein C (Homo sapiens, UniProt P04070). Kind of data set: Inhibitory activity against activated protein C.
The target in a further data set is Plasminogen (Homo sapiens, UniProt P00747). Kind of data set: Inhibitory activity against plasmin.
Chain of Plasminogen (P00747 97-580 limits assumed): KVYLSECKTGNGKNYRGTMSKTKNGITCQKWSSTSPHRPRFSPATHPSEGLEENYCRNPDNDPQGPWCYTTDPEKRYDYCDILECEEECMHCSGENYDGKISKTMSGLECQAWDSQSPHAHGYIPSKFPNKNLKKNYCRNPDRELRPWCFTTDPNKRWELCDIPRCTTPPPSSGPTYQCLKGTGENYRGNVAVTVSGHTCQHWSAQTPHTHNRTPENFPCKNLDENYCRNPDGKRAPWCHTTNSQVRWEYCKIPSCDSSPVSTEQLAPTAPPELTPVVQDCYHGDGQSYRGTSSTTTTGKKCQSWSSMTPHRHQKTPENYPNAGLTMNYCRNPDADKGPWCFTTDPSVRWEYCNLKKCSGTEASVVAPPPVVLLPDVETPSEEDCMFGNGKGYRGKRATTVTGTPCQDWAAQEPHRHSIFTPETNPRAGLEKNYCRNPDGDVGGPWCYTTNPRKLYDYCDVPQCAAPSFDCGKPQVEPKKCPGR
Chain of Plasminogen (P00747 581-810 limits assumed): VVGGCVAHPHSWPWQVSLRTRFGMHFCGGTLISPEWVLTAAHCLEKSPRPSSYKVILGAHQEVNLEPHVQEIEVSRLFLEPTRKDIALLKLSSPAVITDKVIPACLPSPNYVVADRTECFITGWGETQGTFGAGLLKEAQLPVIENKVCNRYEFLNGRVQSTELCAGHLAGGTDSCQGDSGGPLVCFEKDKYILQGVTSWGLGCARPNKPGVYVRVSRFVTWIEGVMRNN
The species entered for another data set is Homo sapiens. In words: Concentration required to double the lag time of maximum thrombin generation in human plasma-based thrombin generation assay. In kind it is functional.
Data set [6] concerns the target T1, Coagulation factor X. In words: Inhibitory activity against Coagulation factor X.
For a further data set, the system named is Rattus norvegicus. Kind of data set: Volume of distribution after intravenous administration of 0.4 mg/kg of dose in rats was determined. Conditions: in vivo.
Data set [7] is described as follows: Oral bioavailability in rats at 6 mg/kg. In kind it is ADME, organism-based. Conditions: rat, in vivo.
A short description of data set [8]: Plasma clearance after intravenous administration of 0.4 mg/kg of dose in rats was determined. Type of data set: ADME, organism-based. Conditions: rat. Also on record: dose 0.4 mg/kg, route intravenous.
Data set [9] can be described thus: Half life after intravenous administration was determined in rats at 0.4 mg/kg. Conditions: rat, in vivo.

T1 sequence (P00742 41-179 limits assumed): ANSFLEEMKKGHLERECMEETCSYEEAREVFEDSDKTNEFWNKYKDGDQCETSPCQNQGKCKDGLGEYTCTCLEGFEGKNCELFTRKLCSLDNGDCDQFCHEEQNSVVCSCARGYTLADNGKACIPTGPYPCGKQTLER
T1 sequence (P00742 235-488 limits assumed): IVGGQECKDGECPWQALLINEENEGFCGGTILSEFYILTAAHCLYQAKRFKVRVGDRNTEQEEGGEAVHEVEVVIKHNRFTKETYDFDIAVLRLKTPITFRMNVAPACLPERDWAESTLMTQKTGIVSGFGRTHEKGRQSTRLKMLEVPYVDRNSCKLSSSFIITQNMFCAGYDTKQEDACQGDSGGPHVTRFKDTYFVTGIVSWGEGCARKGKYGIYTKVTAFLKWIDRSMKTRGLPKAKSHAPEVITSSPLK
Chain of Vitamin K-dependent protein C (P04070 43-197 limits assumed): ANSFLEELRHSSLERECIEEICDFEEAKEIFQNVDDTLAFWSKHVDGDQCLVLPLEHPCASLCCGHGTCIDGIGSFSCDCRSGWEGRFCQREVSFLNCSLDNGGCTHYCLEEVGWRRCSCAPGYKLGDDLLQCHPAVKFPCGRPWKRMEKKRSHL
Chain of Vitamin K-dependent protein C (P04070 212-461 limits assumed): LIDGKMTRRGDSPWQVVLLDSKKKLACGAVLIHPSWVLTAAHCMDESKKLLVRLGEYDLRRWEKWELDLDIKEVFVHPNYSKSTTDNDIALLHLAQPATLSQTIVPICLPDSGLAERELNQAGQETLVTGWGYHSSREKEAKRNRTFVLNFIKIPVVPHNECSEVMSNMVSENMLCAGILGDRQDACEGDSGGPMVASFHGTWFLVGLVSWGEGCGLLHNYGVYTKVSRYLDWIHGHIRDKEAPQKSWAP
Chain of Serine protease 1 (P07477 whole entry): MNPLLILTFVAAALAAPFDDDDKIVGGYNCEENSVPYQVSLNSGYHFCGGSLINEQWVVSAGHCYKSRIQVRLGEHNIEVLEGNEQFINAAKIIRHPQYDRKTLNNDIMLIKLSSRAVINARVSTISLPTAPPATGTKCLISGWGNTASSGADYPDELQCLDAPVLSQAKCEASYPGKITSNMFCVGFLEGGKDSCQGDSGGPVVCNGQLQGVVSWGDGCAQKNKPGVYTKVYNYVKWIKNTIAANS

In the case of `N=C1NCCN1Cc1ccc(C(=O)Nc2ccc(Cl)cc2C(=O)Nc2ccc(Cl)cn2)cc1`, the IC50 against Prothrombin is over 11 µM; against Serine protease 1, over 11 µM; on Coagulation factor X [2], 0.0015 µM; at Plasma kallikrein, 0.21 µM; in data set [4], over 11 µM; in [5], over 11 µM. This compound gave an IC50 against Plasminogen of over 11 µM. This compound also registered a Ki at Coagulation factor X [1] of 0.0005 µM. Besides, the bioavailability in data set [3] was under 1%. The same compound came in with an Activity in the data set filed under Homo sapiens of 0.58 µM.
As for `CN(C)NCc1ccc(C(=O)Nc2ccc(Cl)cc2C(=O)Nc2ccc(Cl)cn2)cc1`, the IC50 is over 11 µM on Prothrombin; over 11 µM against Serine protease 1; 0.0009 µM at Coagulation factor X [2]; 0.64 µM against Plasma kallikrein; over 11 µM in [4]; over 11 µM in data set [5]. The compound further gave an IC50 against Plasminogen of over 11 µM. Further, the Ki at Coagulation factor X [6] was 0.0003 µM. The bioavailability in [3] was determined as 4%. The same compound returned an Activity in the data set listed under Homo sapiens of 1.5 µM.
Turning to `CN(C)Cc1ccc(C(=O)Nc2ccc(Cl)cc2C(=O)Nc2ccc(Cl)cn2)cc1`, the IC50 is over 11 µM at Prothrombin; over 11 µM on Serine protease 1; 0.5 µM against Plasma kallikrein; over 11 µM in [4]; over 11 µM in data set [5]; over 11 µM on Plasminogen. For the same compound, in the data set with Rattus norvegicus, the Volume of distribution is 32.9 L/kg. In addition, in [7], the bioavailability was determined as 100%. Further, the clearance in [8] was determined as 20.6 mL/min/kg. This compound returned an Activity in the data set filed under Homo sapiens of 3.2 µM. In data set [9], this compound gave a half-life of 7.5 h.
As for `CC(=N)N(C)Cc1ccc(C(=O)Nc2ccc(Cl)cc2C(=O)Nc2ccc(Cl)cn2)cc1`, the IC50 against Prothrombin was over 11 µM; at Serine protease 1, over 11 µM; at Plasma kallikrein, 0.5 µM; in data set [4], over 11 µM; in [5] it was over 11 µM; on Plasminogen, over 11 µM. The same compound came in with a bioavailability in data set [3] of under 1%. In the data set filed under Homo sapiens, the Activity was determined as 0.5 µM.
With `NCc1ccc(C(=O)Nc2ccc(Cl)cc2C(=O)Nc2ccc(Cl)cn2)cc1`, the IC50 against Prothrombin is over 11 µM; on Serine protease 1 it was over 11 µM; at Coagulation factor X [2], 0.01 µM; in [4], over 11 µM; in [5] it was over 11 µM; at Plasminogen it was over 11 µM.
On to `NNCc1ccc(C(=O)Nc2ccc(Cl)cc2C(=O)Nc2ccc(Cl)cn2)cc1`, for which the IC50 against Prothrombin is over 11 µM; against Serine protease 1, over 11 µM; at Coagulation factor X [2], 0.04 µM; in data set [4], over 11 µM; in data set [5] it was over 11 µM; on Plasminogen, over 11 µM.
In the case of `CN(Cc1ccc(C(=O)Nc2ccc(Cl)cc2C(=O)Nc2ccc(Cl)cn2)cc1)C1=NCCN1`, the IC50 on Prothrombin is over 11 µM; at Serine protease 1 it was over 11 µM; at Coagulation factor X [2], 0.002 µM; in data set [4], over 11 µM; in data set [5], over 11 µM; against Plasminogen, over 11 µM.
With `O=C(Nc1ccc(Cl)cc1C(=O)Nc1ccc(Cl)cn1)c1ccc(CN2CCC(O)CC2)cc1`, the IC50 against Prothrombin was over 11 µM; on Serine protease 1, over 11 µM; at Coagulation factor X [2], 0.136 µM; in [4], over 11 µM; in data set [5], over 11 µM; on Plasminogen, over 11 µM.
`C/N=C(/NC)N(C)Cc1ccc(C(=O)Nc2ccc(Cl)cc2C(=O)Nc2ccc(Cl)cn2)cc1`: the IC50 on Prothrombin was over 11 µM; at Serine protease 1, over 11 µM; against Coagulation factor X [2] it was 0.0008 µM; in [4], over 11 µM; in data set [5], over 11 µM; against Plasminogen, over 11 µM.
Take `O=C(Nc1ccc(Cl)cc1C(=O)Nc1ccc(Cl)cn1)c1ccc(CN2CCC(C(=O)O)CC2)cc1`: the IC50 against Prothrombin was over 11 µM; against Serine protease 1 it was over 11 µM; against Coagulation factor X [2] it was 0.23 µM; in [4], over 11 µM; in [5], over 11 µM; on Plasminogen, over 11 µM.
Regarding `CNCc1ccc(C(=O)Nc2ccc(Cl)cc2C(=O)Nc2ccc(Cl)cn2)cc1`, the IC50 was over 11 µM on Prothrombin; over 11 µM against Serine protease 1; 0.007 µM at Coagulation factor X [2]; over 11 µM in data set [4]; over 11 µM in data set [5]; over 11 µM against Plasminogen.
Turning to `O=C(Nc1ccc(Cl)cc1C(=O)Nc1ccc(Cl)cn1)c1ccc(CN2CCCC2)cc1`, the IC50 on Prothrombin was over 11 µM; against Serine protease 1, over 11 µM; against Coagulation factor X [2], 0.016 µM; in data set [4] it was over 11 µM; in [5], over 11 µM; against Plasminogen it was over 11 µM.
Consider `CC(=N)N(C)CCN(C)Cc1ccc(C(=O)Nc2ccc(Cl)cc2C(=O)Nc2ccc(Cl)cn2)cc1`, for which the IC50 is over 11 µM at Prothrombin; over 11 µM against Serine protease 1; 0.0011 µM at Coagulation factor X [2]; over 11 µM in data set [4]; over 11 µM in [5]; over 11 µM against Plasminogen.
For the compound `CC(=N)N1CCN(Cc2ccc(C(=O)Nc3ccc(Cl)cc3C(=O)Nc3ccc(Cl)cn3)cc2)CC1`, the IC50 against Prothrombin is over 11 µM; at Serine protease 1, over 11 µM; on Coagulation factor X [2], 0.005 µM; in data set [4], over 11 µM; in data set [5] it was over 11 µM; at Plasminogen it was over 11 µM.
For the compound `NC1=NCCCCN1Cc1ccc(C(=O)Nc2ccc(Cl)cc2C(=O)Nc2ccc(Cl)cn2)cc1`, the IC50 against Prothrombin was over 11 µM; on Serine protease 1, over 11 µM; against Coagulation factor X [2] it was 0.0063 µM; in [4] it was over 11 µM; in [5], over 11 µM; against Plasminogen, over 11 µM.
`CN(Cc1ccc(C(=O)Nc2ccc(Cl)cc2C(=O)Nc2ccc(Cl)cn2)cc1)C1=NCCO1`: the IC50 is over 11 µM on Prothrombin; over 11 µM at Serine protease 1; 0.0015 µM on Coagulation factor X [2]; over 11 µM in [4]; over 11 µM in data set [5]; over 11 µM on Plasminogen.
Consider `O=C(Nc1ccc(Cl)cc1C(=O)Nc1ccc(Cl)cn1)c1ccc(CN2CCNC2=O)cc1`, for which the IC50 was over 11 µM at Prothrombin; over 11 µM at Serine protease 1; 0.03 µM at Coagulation factor X [2]; over 11 µM in [4]; over 11 µM in data set [5]; over 11 µM on Plasminogen.
Turning to `CN(Cc1ccc(C(=O)Nc2ccc(Cl)cc2C(=O)Nc2ccc(Cl)cn2)cc1)C1=NCCS1`, the IC50 against Prothrombin is over 11 µM; on Serine protease 1, over 11 µM; against Coagulation factor X [2], 0.01 µM; in data set [4], over 11 µM; in data set [5] it was over 11 µM; against Plasminogen, over 11 µM.
As for `CC(=N)NCc1ccc(C(=O)Nc2ccc(Cl)cc2C(=O)Nc2ccc(Cl)cn2)cc1`, the IC50 is over 11 µM on Prothrombin; over 11 µM at Serine protease 1; 0.0036 µM against Coagulation factor X [2]; over 11 µM in data set [4]; over 11 µM in [5]; over 11 µM against Plasminogen.
For `CN1CCN=C1N(C)Cc1ccc(C(=O)Nc2ccc(Cl)cc2C(=O)Nc2ccc(Cl)cn2)cc1`, the IC50 against Prothrombin is over 11 µM; against Serine protease 1 it was over 11 µM; against Coagulation factor X [2] it was 0.0003 µM; on Plasma kallikrein, 0.3 µM; in data set [4], over 11 µM; in data set [5], over 11 µM. The same compound returned an IC50 on Plasminogen of over 11 µM. At Coagulation factor X [1], this compound returned an inhibition constant Ki of 0.0003 µM. The compound also returned a bioavailability in data set [3] of under 1%. Also, in the data set filed under Homo sapiens, the Activity is 0.3 µM.
On Coagulation factor X [2], `NCc1ccccc1-c1ccc(C(=O)Nc2ccc(Cl)cc2C(=O)Nc2ccc(Cl)cn2)cc1` displayed an IC50 of 0.0013 µM. The Activity in the data set listed under Homo sapiens was over 5 µM.
Regarding `C/N=C(/N)N(C)Cc1ccc(C(=O)Nc2ccc(Cl)cc2C(=O)Nc2ccc(Cl)cn2)cc1`, the IC50 on Prothrombin is over 11 µM; on Serine protease 1 it was over 11 µM; on Coagulation factor X [2], 0.0007 µM; against Plasma kallikrein, 0.79 µM; in data set [4], over 11 µM; in [5], over 11 µM. Also, on Plasminogen, the IC50 was over 11 µM. The affinity on Coagulation factor X [1], expressed as Ki, was 0.0002 µM. In addition, the Activity in the data set listed under Homo sapiens worked out at 0.79 µM.
Consider `NC(=O)C1CCN(Cc2ccc(C(=O)Nc3ccc(Cl)cc3C(=O)Nc3ccc(Cl)cn3)cc2)CC1`, for which the IC50 was over 11 µM on Prothrombin; over 11 µM on Serine protease 1; 0.076 µM on Coagulation factor X [2]; over 11 µM in data set [4]; over 11 µM in data set [5]; over 11 µM at Plasminogen.
As to `CN(CCO)Cc1ccc(C(=O)Nc2ccc(Cl)cc2C(=O)Nc2ccc(Cl)cn2)cc1`, the IC50 at Prothrombin was over 11 µM; against Serine protease 1, over 11 µM; against Coagulation factor X [2], 0.082 µM; in [4] it was over 11 µM; in data set [5], over 11 µM; at Plasminogen, over 11 µM.
As for `C[N+](C)(C)Cc1ccc(C(=O)Nc2ccc(Cl)cc2C(=O)Nc2ccc(Cl)cn2)cc1`, the IC50 on Prothrombin was over 11 µM; on Serine protease 1, over 11 µM; on Coagulation factor X [2], 0.0008 µM; on Plasma kallikrein, 0.13 µM; in data set [4], over 11 µM; in data set [5], over 11 µM. At Plasminogen, this compound showed an IC50 of over 11 µM. In addition, affinity at Coagulation factor X [1] was put at a Ki of 0.001 µM. The bioavailability in [3] is under 1%. In the data set listed under Homo sapiens, the Activity stood at 0.3 µM.
`CN(Cc1ccc(C(=O)Nc2ccc(Cl)cc2C(=O)Nc2ccc(Cl)cn2)cc1)C(=N)N`: the IC50 on Prothrombin was over 11 µM; at Serine protease 1 it was over 11 µM; against Coagulation factor X [2], 0.001 µM; against Plasma kallikrein it was 0.38 µM; in [4], over 11 µM; in data set [5] it was over 11 µM. On Plasminogen, this compound came in with an IC50 of over 11 µM. The compound further displayed a Ki at Coagulation factor X [1] of 0.0001 µM. The bioavailability in [3] is under 1%. Also, the Activity in the data set listed under Homo sapiens is 0.38 µM.
For the compound `O=C(Nc1ccc(Cl)cc1C(=O)Nc1ccc(Cl)cn1)c1ccc(CN2CCNCC2)cc1`, the IC50 at Prothrombin is over 11 µM; at Serine protease 1, over 11 µM; against Coagulation factor X [2] it was 0.017 µM; in data set [4], over 11 µM; in data set [5], over 11 µM; against Plasminogen, over 11 µM.

As a reminder, the IC50 is the concentration that gives 50% inhibition. In general, Ki refers to the equilibrium dissociation constant of an inhibitor or competing ligand from its target. The term bioavailability denotes the share of a dose that reaches the circulation, judged against a reference dose that is usually intravenous. A low value points to little systemic uptake. A word on the clearance: it is a measure of how efficiently the substance is removed, as volume per time. The term half-life denotes the time needed for the level to fall by half in the phase considered. The low end stands for rapid decline, the high end for slow decline.

The values above are taken from ChEMBL document CHEMBL1147578, “Design, synthesis, and SAR of anthranilamide-based factor Xa inhibitors with improved functional activity” (Bioorg Med Chem Lett, 2004).
